Assay results: patent US12421206B2, “Aryl-n-aryl derivatives for treating a RNA virus infection” (ABIVAX, priority 2018, dated 2025)

What was measured:
[1] = system: DENV-2 strain 16681; assay: DENV-2 inhibition (cytopathic effect inhibition) using Viral ToxGlo assay in A549 cells; type: cell-based, Dengue 2 virus; details: Dengue virus, DENV2, 120 h, compounds at 10 μM, MOI 0.5, 5 days p.i., read-out: % DENV-2 Inhibition Mean (n = 3)
Description: Protocol for Screening Antiviral Compounds for DENV-2 Inhibition and Cytotoxicity Using Viral ToxGlo Assay
A549 cells were maintained in Dulbecco's Modified Eagle Medium (DMEM) supplemented with 10% fetal bovine serum, 100 U/ml penicillin and 100 μg/ml streptomycin. For the purposes of the screening assay they were grown to 90% confluency, trypsinized and recovered. The trypsin was neutralised with cell culture media and cells were centrifuged at 150×g for 5 minutes before discarding the supernatant and resuspending cell pellet in assay media (DMEM supplemented with 2% fetal bovine serum and 100 U/ml penicillin and 100 μg/ml streptomycin). The cells were seeded into 96-well white clear-bottomed cell culture plates at a density of 1.0×10^4 cells/well in 50 μl. For the media/background control column assay media only was added. Cell plates were placed in a humid chamber and incubated overnight at 37° C./5% CO2. After overnight incubation cells were checked for confluency and healthy appearance.
Test compounds were prepared at a final concentration of 10 μM in a maximum DMSO concentration of 1% (final assay concentration maximal 0.1% DMSO) and added to the cell plates in volumes of 10 μl. For cell control and virus control wells the test article solvent only was added. As a positive inhibition control, 7-Deaza-2′-C-methyladenosine was added at 100 μM in 3 wells. Virus (DENV-2 strain 16681) or assay media for cytotoxicity test wells and media/cell control wells was added immediately after test articles at an MOI of 0.5, 40 for 96 well plates respectively. Virus suspension was prepared by thawing DENV-2 frozen stocks and diluting to the required concentration of plaque forming units in assay media.
Cell plates were further incubated inside a humid chamber for 5 days p.i at 37° C./5% CO2. After the incubation period cells were observed under the microscope to check for characteristic cytopathic effect in virus control wells and healthy cells in the cell control wells. After plates were adjusted to room temperature 20 μl Viral ToxGlo (Promega) was added to each well of the 96-well cell plates. Plates were incubated at room temperature for 5 minutes before measuring the luminescence on a spectrophotometer (Envision, PerkinElmer).
DENV-2 inhibition was calculated as percentage of cytopathic effect inhibition relative to the virus control and cytotoxicity as percentage of cell survival relative to cell control wells.

[2] = system: RSV A2; assay: RSV inhibition (cytopathic effect inhibition) using Viral ToxGlo assay in HEp-2 cells; type: cell-based; details: human respiratory syncytial virus, RSV A2, MOI 0.5, HEp-2 cells, 72 h p.i.
Outline: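 HEp-2 cells in EMEM with 2% FBS were infected with RSV A2 at MOI 0.5 immediately after compound (≤1% DMSO) and incubated 72 h at 37 °C. Viral ToxGlo luminescence gave % cytopathic effect inhibition versus virus control, plus cytotoxicity versus cell control; EC50 derived from dose-response.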

Row | SMILES | inhibition at 10 µM [1] [%] | EC50 [2] [nM]
1 | O=C(NCCC1CCCCC1)c1cccc(Nc2ccc(OCc3ccccn3)cc2)c1 [Compound 38, N-(2-cyclohexylethyl)-3-((4-(pyridin-2-ylmethoxy)phenyl)amino)benzamide] | 65 | 281
2 | Cc1cc(OCc2ccccn2)ccc1Nc1cccc(C(=O)NCCC2CC2)c1 [Compound 45, N-(2-cyclopropylethyl)-3-((2-methyl-4-(pyridin-2-ylmethoxy)phenyl)amino)benzamide] | 89 | 280
3 | Cc1cc(OCc2ccccn2)ccc1Nc1cccc(C(=O)NCCC2CCC2)c1 [Compound 46, N-(2-cyclobutylethyl)-3-((2-methyl-4-(pyridin-2-ylmethoxy)phenyl)amino)benzamide] | 71 | 199
4 | CCCC(C)NC(=O)c1cccc(Nc2ccc(OCc3ccccn3)cc2)c1 (stereo not shown) [Compound 64, N-(pentan-2-yl)-3-((4-(pyridin-2-ylmethoxy)phenyl)amino)benzamide] | 93 | 341
5 | Cc1cc(OCc2ccccn2)ccc1Nc1cccc(NC(=O)NCCC(C)C)c1 [Compound 68, 1-isopentyl-3-(3-((2-methyl-4-(pyridin-2-ylmethoxy)phenyl)amino)phenyl)urea] | 70 | 144
